Reference: patent publication US11180504B2 (ORCHID PHARMA LTD., priority 2016, dated 2021)
Values after ≈ are worked out from the molar mass of the structure shown. Read-outs that look alike come from different tables or passages of the source.

Experiments:
[1] = tested on: methicillin-sensitive Staphylococcus aureus; assay: MIC by broth micro-dilution (CLSI), methicillin-sensitive S. aureus; type: cell-based; settings: MSSA S. aureus ATCC29213
[2] = tested on: carbapenem sensitive Escherichia coli; assay: MIC by broth micro-dilution (CLSI), carbapenem sensitive E. coli; type: cell-based
[3] = tested on: carbapenemase producing K. pneumoniae; assay: MIC by broth micro-dilution (CLSI), carbapenemase producing K. pneumoniae; type: cell-based, Klebsiella pneumoniae
[4] = tested on: carbapenem sensitive Pseudomonas aeruginosa; assay: MIC by broth micro-dilution (CLSI), carbapenem sensitive P. aeruginosa; type: cell-based
[5] = Staphylococcus aureus, ATCC 29213 / MSSA, read-out: MIC
[6] = Escherichia coli, ATCC25922, ESBL −ve E. coli ATCC25922, read-out: MIC
[7] = Klebsiella pneumoniae, ATCCBAA1705, KPC-2 K. pneumoniae ATCC BAA-1705, read-out: MIC
[8] = Pseudomonas aeruginosa, ATCC27853, Meropenem susceptible P. aeruginosa ATCC27853, read-out: MIC
[9] = KPC-2 K. pneumoniae ATCC BAA-1705

MIC [1, 5]	MIC [2, 6]	MIC [3, 7]	MIC [4, 8]	MIC [1]	MIC ([2]; ESBL −ve E. coli ATCC25922)	MIC [3, 9]	MIC ([4]; Meropenem susceptible P. aeruginosa ATCC27853)	SMILES	MIC ([3]; Klebsiella pneumoniae, ATCCBAA1705)
8 µg/mL (≈ 15.8 µM)	0.25 µg/mL (≈ 0.493 µM)	2 µg/mL (≈ 3.95 µM)	64 µg/mL (≈ 126 µM)					Cc1nnnn1CC(=O)N[C@H](C)[C@H]1C(=O)N2C(C(=O)O)=C(S[C@@H]3CN[C@H](C(=O)N(C)C)C3)[C@H](C)[C@H]12 [Example 330, (4R,5S,6R)-3-((3S,5S)-5-(dimethylcarbamoyl)pyrrolidin-3-ylthio)-4-methyl-6-((R) - 1-(2-(5-methyl-1H-tetrazol-1-yl)acetamido)ethyl)-7-oxo-1-azabicyclo[3.2.0]hept-2-ene-2-carboxylic acid]	
				16 µg/mL (≈ 25.9 µM)	0.25 µg/mL (≈ 0.405 µM)	2 µg/mL (≈ 3.24 µM)	2 µg/mL (≈ 3.24 µM)	C[C@@H](NC(=O)Cn1cnnn1)[C@H]1C(=O)N2C(C(=O)O)=C(S[C@@H]3CN[C@H](C(=O)N4CCC5CNCC5(C(=O)O)C4)C3)[C@H](C)[C@H]12 (stereo partly drawn) [Example 563, 5-((2S,4S)-4-((4R,5S,6R)-6-((R)-1-(2-(1H-tetrazol-1-yl)acetamido)ethyl)-2-carboxy-4-methyl-7-oxo-1-azabicyclo[3.2.0]hept-2-en-3-yl-thio)pyrrolidine-2-carbonyl)octahydro-1H-pyrrolo[3,4-c]pyridine-3a-carboxylic acid]	
16 µg/mL (≈ 30.3 µM)	0.5 µg/mL (≈ 0.946 µM)		> 128 µg/mL			16 µg/mL (≈ 30.3 µM)		C[C@@H](NS(=O)(=O)Cn1cnnn1)[C@H]1C(=O)N2C(C(=O)O)=C(S[C@@H]3CN[C@H](C(=O)N(C)C)C3)[C@H](C)[C@H]12 [Example 379, (4R,5S,6S)-6-((R)-1-((1H-tetrazol-1-yl)methylsulfonamido)ethyl)-3-((3S,5S)-5-(dimethylcarbamoyl)pyrrolidin-3-ylthio)-4-methyl-7-oxo-1-azabicyclo[3.2.0]hept-2-ene-2-carboxcylic acid]	
16 µg/mL (≈ 25.9 µM)	2 µg/mL (≈ 3.24 µM)	8 µg/mL (≈ 13 µM)	8 µg/mL (≈ 13 µM)					C[C@@H](NC(=O)Cn1cnnn1)[C@H]1C(=O)N2C(C(=O)O)=C(S[C@@H]3CN[C@H](C(=O)N4CCC(N5CC(CN)C5)CC4)C3)[C@H](C)[C@H]12 [Example 343, (4R,5S,6R)-6-((R) - 1-(2-(1H-tetrazol-1-yl)acetamido)ethyl)-3-((3S,5S)-5-(4-(3-(aminomethyl)azetidin-1-yl)piperidine-1-carbonyl)pyrrolidin-3-ylthio)-4-methyl-7-oxo-1-azabicycio[3.2.0]hept-2-ene-2-carboxylic acid]	
2 µg/mL (≈ 4.45 µM)	0.25 µg/mL (≈ 0.556 µM)	1 µg/mL (≈ 2.22 µM)	16 µg/mL (≈ 35.6 µM)					C[C@@H](NC(=O)Cn1cnnn1)[C@H]1C(=O)N2C(C(=O)O)=C(SC3CN(C(=N)N)C3)[C@H](C)[C@H]12 [Example 515, (4R,5S,6R)-6-((R)-1-(2-(1H-tetrazol-1-yl)acetamido)ethyl)-3-(1-carbamimidoylazetidin-3-ylthio)-4-methyl-7-oxo-1-azabicyclo[3.2.0]hept-2-ene-2-carboxylic acid]	
4 µg/mL (≈ 7.15 µM)	0.25 µg/mL (≈ 0.447 µM)	2 µg/mL (≈ 3.57 µM)	1 µg/mL (≈ 1.79 µM)					C[C@@H](NC(=O)Cn1cnnn1)[C@H]1C(=O)N2C(C(=O)O)=C(S[C@@H]3CN[C@H](C(=O)N4CC5CNCC5C4)C3)[C@H](C)[C@H]12 (stereo partly drawn) [Example 540, (4R,5S,6R)-6-((R)-1-(2-(1H-tetrazol-1-yl)acetamido)ethyl)-4-methyl-3-((3S,5S)-5-(octahydropyrrolo-[3,4-c]pyrrole-2-carbonyl)pyrrolidin-3-ylthio)-7-oxo-1-azabicyclo[3.2.0]hept-2-ene-2-carboxylic acid]	
8 µg/mL (≈ 14.1 µM)	4 µg/mL (≈ 7.07 µM)	64 µg/mL (≈ 113 µM)	> 128 µg/mL					CO/N=C(\C(=O)N[C@H](C)[C@H]1C(=O)N2C(C(=O)O)=C(S[C@@H]3CN[C@H](C(=O)N(C)C)C3)[C@H](C)[C@H]12)c1csc(N)n1 [Example 325, (4R,5S,6R)-6-((R) - 1-((Z)-2-(2-aminothiazol-4-yl)-2-(methoxyimino)acetamido)ethyl)-3-((3S,5S)-5-(dimethylcarbamoyl)pyrrolidin-3-ylthio)-4-methyl-7-oxo-1-azabicyclo[3.2.0]hept-2-ene-2-carboxylic acid]	

The remaining lines, values behind:

SMILES	MIC [1, 5]	MIC [2, 6]	MIC [3, 7]	MIC [4, 8]	MIC [1]	MIC ([2]; ESBL −ve E. coli ATCC25922)	MIC [3, 9]	MIC ([4]; Meropenem susceptible P. aeruginosa ATCC27853)	MIC ([3]; Klebsiella pneumoniae, ATCCBAA1705)
C[C@@H](NC(=O)C(F)F)[C@H]1C(=O)N2C(C(=O)O)=C(S[C@@H]3CN[C@H](CNC(=O)[C@@H]4CC[C@H](N)C4)C3)[C@H](C)[C@H]12 [Example 260]	1 µg/mL (≈ 1.89 µM)	4 µg/mL (≈ 7.55 µM)	8 µg/mL (≈ 15.1 µM)	32 µg/mL (≈ 60.4 µM)					
C[C@@H](NC(=O)Cn1nnc(N)n1)[C@H]1C(=O)N2C(C(=O)O)=C(S[C@@H]3CN[C@H](C(=O)N4CC[C@@H](N)C4)C3)[C@H](C)[C@H]12 [Example 316, (4R,5S,6R)-6-((R) - 1-(2-(5-amino-2H-tetrazol-2-yl)acetamido)ethyl)-3-((3S,5S)-5-((R)-3-aminopyrrolidine-1-carbonyl)pyrrolidin-3-ylthio)-4-methyl-7-oxo-1-azabicyclo[3.2.0]hept-2-ene-2-carboxylic acid]	4 µg/mL (≈ 7.29 µM)	0.25 µg/mL (≈ 0.456 µM)	16 µg/mL (≈ 29.2 µM)	16 µg/mL (≈ 29.2 µM)					
C[C@@H](NC(=O)Cn1cnnn1)[C@H]1C(=O)N2C(C(=O)[O-])=C(SC3Cn4cnc[n+]4C3)[C@H](C)[C@H]12 (stereo partly drawn) [Example 306, (4R,5S,6R)-6-((R) - 1-(2-(1H-tetrazol-1-yl)acetamido)ethyl)-3-(6,7-dihydro-5H-pyrazolo[1,2-a][1,2,4]triazol-4-ium-6-ylthio)-4-methyl-7-oxo-1-azabicyclo[3.2.0]hept-2-ene-2-carboxylate]	2 µg/mL (≈ 4.35 µM)	0.25 µg/mL (≈ 0.544 µM)	1 µg/mL (≈ 2.18 µM)	4 µg/mL (≈ 8.71 µM)					
C[C@@H](NC(=O)CC(N)=O)[C@H]1C(=O)N2C(C(=O)O)=C(S[C@@H]3CN[C@H](C(=O)N4CC[C@@H](N)C4)C3)[C@H](C)[C@H]12 [Example 299, (4R,5S,6R)-6-((R) - 1-(3-amino-3-oxopropanamido)ethyl)-3-((3S,5S)-5-((R)-3-aminopyrrolidine-1-carbonyl)pyrrolidin-3-ylthio)-4-methyl-7-oxo-1-azabicyclo[3.2.0]hept-2-ene-2-carboxylic acid]	16 µg/mL (≈ 31.5 µM)	4 µg/mL (≈ 7.86 µM)	8 µg/mL (≈ 15.7 µM)	16 µg/mL (≈ 31.5 µM)					
C[C@@H](NC(=O)CNC(=N)N)[C@H]1C(=O)N2C(C(=O)O)=C(S[C@@H]3CN[C@H](C(=O)N(C)C)C3)[C@H](C)[C@H]12 [Example 241]	16 µg/mL (≈ 33.2 µM)	2 µg/mL (≈ 4.15 µM)	2 µg/mL (≈ 4.15 µM)	32 µg/mL (≈ 66.4 µM)					
CNCC(=O)N[C@H](C)[C@H]1C(=O)N2C(C(=O)O)=C(S[C@@H]3CN[C@H](CNC(=O)[C@@H]4CSCN4)C3)[C@H](C)[C@H]12 [Example 291]	32 µg/mL (≈ 60.8 µM)	2 µg/mL (≈ 3.8 µM)	2 µg/mL (≈ 3.8 µM)	8 µg/mL (≈ 15.2 µM)					
C[C@@H](NC(=O)Cn1cnnn1)[C@H]1C(=O)N2C(C(=O)O)=C(S[C@@H]3CN[C@H](C(=O)N4C5CCC4CC4(CCNC4)C5)C3)[C@H](C)[C@H]12 (stereo partly drawn) [Example 377, (4R,5S,6R)-6-((R)-1-(2-(1H-tetrazol-1-yl)acetamido)ethyl)-3-((3S,5S)-5-(8-azaspiro[bicyclo[3.2.1]octane-3,3′-pyrrolidine]-8-ylcarbonyl)pyrrolidin-3-ylthio)-4-methyl-7-oxo-1-azabicyclo[3.2.0]hept-2-ene-2-carboxylic acid]	4 µg/mL (≈ 6.52 µM)	0.25 µg/mL (≈ 0.407 µM)		8 µg/mL (≈ 13 µM)					2 µg/mL (≈ 3.26 µM)
